Reference: the NIST ThermoML archive (doi:10.1016/j.jct.2018.02.022)
Several values for one entry are separate records, joined by “and”; a condition that tells them apart may be missing. Equal values may be shown once. ± gives the expanded uncertainty stated by the source.

Assay: xn = mol fraction of the nth substance listed
Details: 308.15 K, 92.3 kPa, Liquid; for viscosity: Concentric cylinders viscometry; for speed of sound: Frequency=3 MHz, Single path-length method; for mass density: Vibrating tube method

## CCO [ethanol] + O
x1 = 0.0201
  viscosity: 0.8821 ± 0.12 mPa·s
  mass density: 985.15 ± 3.2 kg/m3
x1 = 0.0408
  viscosity: 1.006 ± 0.14 mPa·s
  mass density: 976.58 ± 3.2 kg/m3
x1 = 0.0497
  viscosity: 1.073 ± 0.15 mPa·s
  mass density: 973.32 ± 3.2 kg/m3
x1 = 0.06
  viscosity: 1.158 ± 0.16 mPa·s
  speed of sound: 1591.8 ± 1.8 m/s
  mass density: 970.651 ± 3.2 kg/m3 and 969.36 ± 3.2 kg/m3
x1 = 0.0796
  viscosity: 1.284 ± 0.18 mPa·s
  mass density: 964.08 ± 3.2 kg/m3
x1 = 0.1004
  viscosity: 1.43 ± 0.2 mPa·s
  mass density: 955.87 ± 3.2 kg/m3
x1 = 0.1499
  viscosity: 1.591 ± 0.22 mPa·s
  mass density: 942.15 ± 3.2 kg/m3
x1 = 0.1984
  viscosity: 1.696 ± 0.24 mPa·s
  mass density: 925.04 ± 3.2 kg/m3
x1 = 0.2499
  viscosity: 1.719 ± 0.24 mPa·s
  mass density: 911.28 ± 3.2 kg/m3
x1 = 0.3016
  viscosity: 1.697 ± 0.24 mPa·s
  mass density: 896.6 ± 3.2 kg/m3
x1 = 0.3499
  viscosity: 1.664 ± 0.23 mPa·s
  mass density: 883.84 ± 3.2 kg/m3
x1 = 0.399
  viscosity: 1.617 ± 0.23 mPa·s
  mass density: 871.78 ± 3.2 kg/m3
x1 = 0.4495
  viscosity: 1.55 ± 0.22 mPa·s
  mass density: 860.66 ± 3.2 kg/m3
x1 = 0.4989
  viscosity: 1.482 ± 0.21 mPa·s
  mass density: 851.3 ± 3.2 kg/m3
x1 = 0.5495
  viscosity: 1.437 ± 0.2 mPa·s
  mass density: 841.93 ± 3.2 kg/m3
x1 = 0.6067
  viscosity: 1.347 ± 0.19 mPa·s
  mass density: 831.06 ± 3.2 kg/m3
x1 = 0.6503
  viscosity: 1.292 ± 0.18 mPa·s
  speed of sound: 1238.8 ± 1.8 m/s
  mass density: 823.98 ± 3.2 kg/m3 and 824.09 ± 3.2 kg/m3
x1 = 0.6956
  viscosity: 1.229 ± 0.17 mPa·s
  mass density: 817.19 ± 3.2 kg/m3
x1 = 0.75
  viscosity: 1.171 ± 0.16 mPa·s
  mass density: 809.16 ± 3.1 kg/m3
x1 = 0.7843
  viscosity: 1.135 ± 0.16 mPa·s
  mass density: 804.63 ± 3.1 kg/m3
x1 = 0.8475
  viscosity: 1.077 ± 0.15 mPa·s
  mass density: 796.81 ± 3.1 kg/m3
x1 = 0.8864
  viscosity: 1.027 ± 0.14 mPa·s
  mass density: 791.17 ± 3.1 kg/m3
x1 = 0.929
  viscosity: 0.9821 ± 0.14 mPa·s
  mass density: 785.46 ± 3.1 kg/m3
x1 = 1
  viscosity: 0.9039 ± 0.13 mPa·s
  speed of sound: 1109.6 ± 1.8 m/s
  mass density: 776.592 ± 3 kg/m3
x1 = 0.0024
  speed of sound: 1523.3 ± 1.8 m/s
  mass density: 992.863 ± 3 kg/m3
x1 = 0.0202
  speed of sound: 1548.3 ± 1.8 m/s
  mass density: 984.706 ± 3.2 kg/m3
x1 = 0.0295
  speed of sound: 1560.3 ± 1.8 m/s
  mass density: 981.361 ± 3.2 kg/m3
x1 = 0.0366
  speed of sound: 1568.9 ± 1.8 m/s
  mass density: 978.735 ± 3.2 kg/m3
x1 = 0.0513
  speed of sound: 1584.5 ± 1.8 m/s
  mass density: 973.534 ± 3.2 kg/m3
x1 = 0.0707
  speed of sound: 1598.7 ± 1.8 m/s
  mass density: 967.196 ± 3.2 kg/m3
x1 = 0.0801
  speed of sound: 1602.7 ± 1.8 m/s
  mass density: 964.224 ± 3.2 kg/m3
x1 = 0.0904
  speed of sound: 1604.7 ± 1.8 m/s
  mass density: 960.944 ± 3.2 kg/m3
x1 = 0.0997
  speed of sound: 1604.4 ± 1.8 m/s
  mass density: 958.013 ± 3.2 kg/m3
x1 = 0.1294
  speed of sound: 1592.3 ± 1.8 m/s
  mass density: 948.682 ± 3.2 kg/m3
x1 = 0.1497
  speed of sound: 1576.5 ± 1.8 m/s
  mass density: 942.174 ± 3.2 kg/m3
x1 = 0.2008
  speed of sound: 1527.8 ± 1.8 m/s
  mass density: 925.836 ± 3.2 kg/m3
x1 = 0.2503
  speed of sound: 1480 ± 1.8 m/s
  mass density: 910.712 ± 3.2 kg/m3
x1 = 0.2998
  speed of sound: 1436.6 ± 1.8 m/s
  mass density: 896.603 ± 3.2 kg/m3
x1 = 0.3507
  speed of sound: 1397.3 ± 1.8 m/s
  mass density: 883.273 ± 3.2 kg/m3
x1 = 0.3992
  speed of sound: 1364.6 ± 1.8 m/s
  mass density: 871.678 ± 3.2 kg/m3
x1 = 0.4514
  speed of sound: 1333.4 ± 1.8 m/s
  mass density: 860.353 ± 3.2 kg/m3
x1 = 0.5002
  speed of sound: 1306.7 ± 1.8 m/s
  mass density: 850.223 ± 3.2 kg/m3
x1 = 0.5494
  speed of sound: 1282.7 ± 1.8 m/s
  mass density: 841.009 ± 3.2 kg/m3
x1 = 0.6018
  speed of sound: 1259 ± 1.8 m/s
  mass density: 831.83 ± 3.2 kg/m3
x1 = 0.7006
  speed of sound: 1218.8 ± 1.8 m/s
  mass density: 816.2 ± 3.2 kg/m3
x1 = 0.7355
  speed of sound: 1206.3 ± 1.8 m/s
  mass density: 811.052 ± 3.2 kg/m3
x1 = 0.7965
  speed of sound: 1183 ± 1.8 m/s
  mass density: 802.628 ± 3.2 kg/m3
x1 = 0.8433
  speed of sound: 1166.1 ± 1.8 m/s
  mass density: 796.401 ± 3.1 kg/m3
x1 = 0.892
  speed of sound: 1148.7 ± 1.8 m/s
  mass density: 790.037 ± 3.1 kg/m3
x1 = 0.9093
  speed of sound: 1142.6 ± 1.8 m/s
  mass density: 787.861 ± 3.1 kg/m3
x1 = 0.9207
  speed of sound: 1138.3 ± 1.8 m/s
  mass density: 786.448 ± 3.1 kg/m3
x1 = 0.9307
  speed of sound: 1134.6 ± 1.8 m/s
  mass density: 785.175 ± 3.1 kg/m3
x1 = 0.9398
  speed of sound: 1131.4 ± 1.8 m/s
  mass density: 784.096 ± 3.1 kg/m3
x1 = 0.9483
  speed of sound: 1128.4 ± 1.8 m/s
  mass density: 783.019 ± 3.1 kg/m3
x1 = 0.9603
  speed of sound: 1124.2 ± 1.8 m/s
  mass density: 781.59 ± 3.1 kg/m3
x1 = 0.9702
  speed of sound: 1120.6 ± 1.8 m/s
  mass density: 780.379 ± 3.1 kg/m3
x1 = 0.9801
  speed of sound: 1117.5 ± 1.8 m/s
  mass density: 779.061 ± 3.1 kg/m3
x1 = 0.9895
  speed of sound: 1114 ± 1.8 m/s
  mass density: 778.103 ± 3.1 kg/m3
